The experiment concerns PC-3-KQ cells. Nature of the experiment: 3D spheroid invasion assay and screening of FDA-approved drugs. It counts as cell-based, human. Conditions: compared to vehicle control; for activity at 0.01 µM / activity at 0.1 µM / activity at 1 µM / activity at 10 µM: Homo sapiens, 72 h. How it is done: The invasion assay was performed as previously described. […] The plates were then centrifuged at 320 g for 4 min to cluster cells in the bottom of wells and incubated for 3 days. On the fourth day, 40 μL medium was removed from each well, 40 μL of the matrigel-medium mixture was added to each well, and cells were cultured for another 3 days. […] At the end of the incubation, images were taken using a phase contrast microscope (Eclipse Ti2, Nikon, Tokyo, Japan) with 10× object lenses, and the total area of cells and the core sphere area of cells (Fig. 1a) were measured using the Image J software. The invading area was calculated using the following formula: invasion area = total area of cells – core sphere area.
For drug screening, drugs were added to the matrigel-medium mixture when replacing the culture medium on day 4. For the initial round of screening, a final concentration of 10 μM was used for all drugs. Multiple drug concentrations were used for the second round of screening, including 0, 0.001, 0.01, 0.1, 1, and 10 μM. Duplicate wells were repeated for each concentration.

[1] abbreviates: 0.01 μM (first column so headed), secondary screening of 87 hit compounds (Table S1).
The mark [2] stands for this setting: 0.01 μM (first column so headed), third screening of 25 hit compounds (Table S2).
The mark [3] stands for this setting: 0.01 μM (second column so headed), secondary screening of 87 hit compounds (Table S1).
Where [4] appears, read: 0.01 μM (second column so headed), third screening of 25 hit compounds (Table S2).
The mark [5] stands for this setting: 0.1 μM, secondary screening of 87 hit compounds (Table S1).
Where [6] appears, read: 0.1 μM, third screening of 25 hit compounds (Table S2).
[7] abbreviates: 1 μM, secondary screening of 87 hit compounds (Table S1).
[8] abbreviates: 1 μM, third screening of 25 hit compounds (Table S2).
[9] abbreviates: 10 μM, secondary screening of 87 hit compounds (Table S1).
Where [10] appears, read: 10 μM, third screening of 25 hit compounds (Table S2).
Where [11] appears, read: 0.01 μM (first column so headed), secondary screening of 87 hit compounds (Table S1), read-out: Invasion rates (%) of each drug’s multiple concentrations.
[12] abbreviates: 0.01 μM (second column so headed), secondary screening of 87 hit compounds (Table S1), read-out: Invasion rates (%) of each drug’s multiple concentrations.
[13] abbreviates: 0.1 μM, secondary screening of 87 hit compounds (Table S1), read-out: Invasion rates (%) of each drug’s multiple concentrations.
The mark [14] stands for this setting: 1 μM, secondary screening of 87 hit compounds (Table S1), read-out: Invasion rates (%) of each drug’s multiple concentrations.
[15] abbreviates: 10 μM, secondary screening of 87 hit compounds (Table S1), read-out: Invasion rates (%) of each drug’s multiple concentrations.

The structures appear in SMILES notation. Read-outs that look alike come from different tables or passages of the source.

Turning to `Cc1ncc([N+](=O)[O-])n1CC(O)CN1CCOCC1` (single isomer, unassigned) [Morinidazole (R enantiomer)], the “Invasion rates (%) of each drug’s multiple concentrations (μM)” value (shortened to “Invasion rates (%)”) is, setting by setting: under setting [1], 90.71%; under setting [2], 95.71%; under setting [3], 98.08%; under setting [4], 97.64%; under setting [5], 89.69%; under setting [6], 94.21%. The “Invasion rates (%)” value stood at 10.13% under setting [7], 6.21% under setting [8], 2.86% under setting [9] and 0.38% under setting [10].
As to `Nc1c2ccccc2nc2ccccc12` [9-Aminoacridine], the activity at 0.01 µM was 96% under setting [11] and 93.3% under setting [12]. Also, the activity at 0.1 µM under setting [13] is 94.7%. The activity at 1 µM under setting [14] was 86.4%. For the same compound, the activity at 10 µM under setting [15] is 1.63%.
As for `CNC[C@H](O)c1cccc(O)c1.Cl` [(R)-(-)-Phenylephrine (hydrochloride)], the “Invasion rates (%)” value runs as follows: under setting [1], 103.19%; under setting [3], 103.23%; under setting [5], 98.23%; under setting [7], 96.01%; under setting [9], 4.27%.
With `CC[C@@]1(O)C(=O)OCc2c1cc1n(c2=O)Cc2cc3cc(O)ccc3nc2-1` [(S)-10-Hydroxycamptothecin], the activity at 0.01 µM was found to be 93.7% (read-out: Invasion rates (%) of each drug’s multiple concentrations (μM), 0.01 μM (first column so headed), secondary screening of 87 hit compounds (Table S1)) and 98.2% (read-out: Invasion rates (%) of each drug’s multiple concentrations (μM), 0.01 μM (second column so headed), secondary screening of 87 hit compounds (Table S1)). For the same compound, the activity at 0.1 µM (read-out: Invasion rates (%) of each drug’s multiple concentrations (μM), 0.1 μM, secondary screening of 87 hit compounds (Table S1)) was 85%. In addition, the activity at 1 µM (read-out: Invasion rates (%) of each drug’s multiple concentrations (μM), 1 μM, secondary screening of 87 hit compounds (Table S1)) turned out to be 89.9%. Further, the activity at 10 µM (read-out: Invasion rates (%) of each drug’s multiple concentrations (μM), 10 μM, secondary screening of 87 hit compounds (Table S1)) came to 85.1%.
Take `CCN1CCN(Cc2ccc(Nc3ncc(F)c(-c4cc(F)c5nc(C)n(C(C)C)c5c4)n3)nc2)CC1.CS(=O)(=O)O` [Abemaciclib (methanesulfonate)]: the “Invasion rates (%)” value under setting [1] stood at 93.33%; the “Invasion rates (%)” value under setting [3] turned out to be 94.22%; the “Invasion rates (%)” value under setting [5] was determined as 93.89%; the “Invasion rates (%)” value under setting [7] is recorded as 89.88%; the “Invasion rates (%)” value under setting [9] is given as 47.24%.
For `CC[C@@]1(O)C[C@H](O[C@H]2C[C@H](N(C)C)[C@H](O[C@H]3C[C@H](O)[C@H](O[C@H]4CCC(=O)[C@H](C)O4)[C@H](C)O3)[C@H](C)O2)c2c(cc3c(c2O)C(=O)c2c(O)cccc2C3=O)[C@H]1C(=O)OC.Cl` [Aclacinomycin A hydrochloride] the same measures were 84.24%, 96.55%, 76.95%, 81.36% and 1.28%.
As to `CCO[C@H]1O[C@@H]2O[C@@]3(C)CC[C@H]4[C@H](C)CC[C@@H]([C@H]1C)[C@@]24OO3` [Artemotil], the activity at 0.01 µM runs as follows: under setting [11], 96.2%; under setting [12], 95.5%. Moreover, the activity at 0.1 µM under setting [13] turned out to be 90.7%. Under setting [14], the activity at 1 µM was 85.7%. The activity at 10 µM under setting [15] amounted to 0.51%.
For `CC(=O)OC[C@H]1O[C@@H]([S-])[C@H](OC(C)=O)[C@@H](OC(C)=O)[C@@H]1OC(C)=O.CCP(CC)CC.[Au+]` [Auranofin], the “Invasion rates (%)” value reads like this: under setting [1], 98.81%; under setting [2], 93.68%; under setting [3], 100.66%; under setting [4], 97.35%; under setting [5], 95.62%; under setting [6], 88.21%. In addition, the “Invasion rates (%)” value reads like this: under setting [7], 2.03%; under setting [8], 2.34%; under setting [9], 0.38%; under setting [10], 0.76%.
For the compound `Cn1cnc([N+](=O)[O-])c1Sc1ncnc2nc[nH]c12` [Azathioprine], the activity at 0.01 µM reads like this: under setting [11], 85.2%; under setting [12], 91.6%. In addition, under setting [13], the activity at 0.1 µM stood at 80%. For the same compound, the activity at 1 µM under setting [14] was 68.3%. Besides, the activity at 10 µM under setting [15] is 33.5%.
In the case of `O=C(Cn1ccnc1[N+](=O)[O-])NCc1ccccc1` [Benznidazol], the activity at 0.01 µM by setting is: under setting [11], 92.5%; under setting [12], 94.3%. Moreover, the activity at 0.1 µM under setting [13] is 88.1%. The activity at 1 µM under setting [14] was 90.9%. Under setting [15], the activity at 10 µM stood at 4.48%.
On to `CC(C)C[C@H](NC(=O)[C@H](Cc1ccccc1)NC(=O)c1cnccn1)B(O)O` [Bortezomib], for which the activity at 0.01 µM under setting [11] was 29.5%; the activity at 0.01 µM (0.01 μM (first column so headed), third screening of 25 hit compounds (Table S2), read-out: Invasion rates (%) of each drug’s multiple concentrations) stood at 84.3%; the activity at 0.01 µM under setting [12] came out at 75.3%; the activity at 0.01 µM (0.01 μM (second column so headed), third screening of 25 hit compounds (Table S2), read-out: Invasion rates (%) of each drug’s multiple concentrations) stood at 92.8%. Moreover, the activity at 0.1 µM by setting is: under setting [13], 5.79%; (0.1 μM, third screening of 25 hit compounds (Table S2), read-out: Invasion rates (%) of each drug’s multiple concentrations) 66.1%. The activity at 1 µM runs as follows: under setting [14], 4.37%; (1 μM, third screening of 25 hit compounds (Table S2), read-out: Invasion rates (%) of each drug’s multiple concentrations) 35.3%. For the same compound, the activity at 10 µM is 0.98% under setting [15] and 9.72% (10 μM, third screening of 25 hit compounds (Table S2), read-out: Invasion rates (%) of each drug’s multiple concentrations).
Consider `COc1cc(Nc2c(C#N)cnc3cc(OCCCN4CCN(C)CC4)c(OC)cc23)c(Cl)cc1Cl` [Bosutinib], for which the activity at 0.01 µM runs as follows: under setting [11], 90.7%; under setting [12], 97.2%. For the same compound, the activity at 0.1 µM under setting [13] is 87.3%. Also, under setting [14], the activity at 1 µM amounted to 69.9%. Under setting [15], the activity at 10 µM is 10.1%.
Consider `Cc1cc(Nc2ncc(Cl)c(Nc3ccccc3S(=O)(=O)C(C)C)n2)c(OC(C)C)cc1C1CCNCC1.Cl.Cl` [Ceritinib dihydrochloride], for which the “Invasion rates (%)” value is 88.46% under setting [1]; 86.07% under setting [3]; 92.06% under setting [5]; 86.82% under setting [7]; 39.86% under setting [9].
With `CN(C)[C@@H]1C(=O)C(C(N)=O)=C(O)[C@@]2(O)C(=O)C3=C(O)c4c(O)ccc(Cl)c4[C@@](C)(O)[C@H]3C[C@@H]12.Cl` [Chlortetracycline (hydrochloride)], the “Invasion rates (%)” value is, setting by setting: under setting [1], 99.62%; under setting [3], 99.02%; under setting [5], 97.93%; under setting [7], 95.42%; under setting [9], 45.01%.

(Values after PMC9945734 (BMC Medicine, 2023).)
